Results taken from patent US10280465B2, “Biomarkers for predicting relapse in multiple sclerosis” (The United States of America as represented by the …, priority 2014, dated 2019).
“Also recorded” adds a separate entry of the source.

Assays:
[1] = tested on: RRMS; experiment: Clinical response to glatiramer acetate in RRMS patients over 2 years; assay type: in vivo, human; conditions: 15 RRMS patients, 20 mg subcutaneously every day for 2 years
From the text: A total of 15 patients with RRMS were enrolled in the study. The patients were recruited from the University of Maryland Multiple Sclerosis Center. The mean age was 40 (range, 22-60), and consisted of 60% females (n=9) and 40% males (n=6). The criteria for inclusion of MS patients in the study were: (i) age 18 to 65 years; (ii) fulfillment of the McDonald criteria for definite MS (McDonald et al., 2001; Polman et al., 2005); (iii) relapsing-remitting course; (iv) having newly diagnosed MS, or MS not treated with currently used immunomodulatory drugs (interferon-β or glatiramer acetate) for 3 months prior to study entry; (v) no exacerbations in the 4 weeks before the study; (vi) no i.v. or p.o. steroids for 4 weeks prior to study enrollment; (vii) no treatment with Tysabri, Gilenya, mitoxantrone, cyclophosphamide, or any investigational drug during the past year; and (viii) a disability score of 0-5.5, as defined by the expanded disability status scale (EDSS) (Kurtzke, 1983). […]
All MS patients received 20 mg of glatiramer acetate (GA) injected subcutaneously every day for 2 years. During this period of 2 years, patients were clinically evaluated and peripheral blood samples were collected at 0, 3, 6, and 12 months at the time of their outpatient visits. […]

[2] = tested on: CD8+ T cells from an MS patient; experiment: Annexin V-FITC binding (early apoptosis) by FACS, CD8+ T cells from an MS patient; assay type: cell-based, human; conditions: sirtinol 200 μM, 24 h
Protocol: (§1) PBMCs and Jurkat cells were plated in RPMI-10% FBS in 12-well plates 24 h prior to Annexin V FITC FACS analysis. Some of the cells were treated with sirtinol (200 μM) and the binding of Annexin V-FITC to cells was compared with that of cells exposed to vehicle (DMSO) only. Annexin V assay was performed according to manufacturer instructions (BD Biosciences) and only Annexin V FITC positive, propidium iodide negative cells were used in the evaluations since they are reflecting early apoptosis.

[3] = tested on: CD4+ T cells from an MS patient; experiment: Annexin V-FITC binding (early apoptosis) by FACS, CD4+ T cells from an MS patient; assay type: cell-based, human; conditions: sirtinol 200 μM, 24 h
Protocol: as §1

[4] = tested on: FasL; experiment: FasL expression by FACS analysis in PBMCs from a stable MS patient after sirtinol; assay type: cell-based, human; conditions: sirtinol 200 μM
Protocol: FIGS. 8A-8D. Effect of SIRT 1 inhibition on FasL expression. PBMCs from a stable MS patient (FIG. 8A, FIG. 8C) were pretreated with the SIRT1 inhibitor sirtinol (200 μM) for 24 h (FIG. 8B, FIG. 8D), cultured with CD4^+ (FIG. 8B) or CD8^+ (FIG. 8D) T cells, and expression of FasL was then determined by FACS analysis.

[5] = tested on: SIRT1 mRNA; experiment: SIRT1 mRNA expression in PBMCs from stable MS patients after sirtinol; assay type: cell-based, human; conditions: sirtinol 200 μM, data not shown
[6] = tested on: Jurkat cells; experiment: Annexin V-FITC binding (early apoptosis) by FACS, Jurkat cells; assay type: cell-based; conditions: sirtinol 200 μM, 24 h
Protocol: as §1

[7] = tested on: activated T cells; conditions: Singh et al., 2007; cited from earlier work
[8] = tested on: EAE; conditions: cited from earlier work

glatiramer acetate [GA]
non-responders (2 or more relapse events during the 2 year span) [1]: 4 | responders (0 or no more than 1 relapse event during the 2 year span) [1]: 11

CC(NC(=O)c1ccccc1/N=C/c1c(O)ccc2ccccc12)c1ccccc1 (stereo not drawn) [sirtinol]
Annexin V binding / apoptosis, in words ([2]; CD8+ T cells from an MS patient): significant apoptosis; also recorded: significant increase in Annexin V binding | apoptosis (Annexin V binding) ([2]; CD8 cells, control cells 22%): 81% | Annexin V binding / apoptosis, in words ([3]; CD4+ T cells from an MS patient): significant apoptosis; also recorded: significant increase in Annexin V binding | apoptosis (Annexin V binding) ([3]; CD4 cells, control cells 6%): 55% | FasL expression ([4]; CD4+ T cells, 24 h): significant increase | FasL expression ([4]; CD8+ T cells, 24 h): significant increase | FasL expression ([4]; PBMCs from stable MS patients): significantly increased | inhibition of the expression of SIRT1 mRNA [5]: 50% | Annexin V binding / apoptosis, in words [6]: significant apoptosis; also recorded: significant increase in Annexin V binding | cells binding Annexin V ([6]; vehicle DMSO control 6%): 65%

Oc1ccc(C=Cc2cc(O)cc(O)c2)cc1 [resveratrol]
apoptosis in activated T cells [7]: trigger apoptosis | disease course in EAE ([8]; Nimmagadda et al., 2013): ameliorates the disease course | spinal cord inflammation during EAE ([8]; Singh et al., 2007): decrease in spinal cord inflammation
